We go through 11 molecules from patent publication US9340544B2, “Purinyl derivatives and their use as potassium channel modulators” (NeuroSearch A/S, priority 2007, dated 2016).

In this test the target is T1, hSK3 channels (Homo sapiens, UniProt Q9UGI6).
T1 construct: expressed in transfected cells; host or cells: HEK293
The test can be described thus: Whole-cell patch-clamp recording of ionic current through SK channels (subtype 3) in HEK293 cells expressing hSK3. The test is classed as cell-based. The settings on record: SK3 activation. How it is done: The ionic current through small-conductance Ca^2+-activated K^+ channels (SK channels, subtype 3) is recorded using the whole-cell configuration of the patch-clamp technique in a classic patch-clamp set-up using HEK293 tissue culture cells expressing hSK3 channels as described in e.g. WO 2006/100212.
The SC100 value determined is defined as the Stimulating Concentration required for increasing the baseline current by 100%.
For the molecule `Cc1cc(C)n(-c2nc(Nc3ccc(F)cc3)c3ncn(C)c3n2)n1` [Compound 9.1, [2-(3,5-Dimethyl-pyrazol-1-yl)-9-methyl-9H-purin-6-yl]-(4-fluoro-phenyl)-amine], the “The SC100 (Stimulating Concentration required for increasing the baseline current by 100%)” value came to 0.05 µM.
As to `Cc1cc(C)n(-c2nc(Nc3ccc(Cl)nc3)c3ncn(C)c3n2)n1` [Compound 9.7, (6-Chloro-pyridin-3-yl)-[2-(3,5-dimethyl-pyrazol-1-yl)-9-methyl-9H-purin-6-yl]-amine], the “The SC100 (Stimulating Concentration required for increasing the baseline current by 100%)” value was 0.4 µM.
`CCn1cnc2c(Nc3ccc(Cl)cc3)nc(-n3nc(C)cc3C)nc21` [Compound 6.4, (4-Chloro-phenyl)-[2-(3,5-dimethyl-pyrazol-1-yl)-9-ethyl-9H-purin-6-yl]-amine]: the “The SC100 (Stimulating Concentration required for increasing the baseline current by 100%)” value was found to be 0.01 µM.
In the case of `Cc1cc(C)n(-c2nc(NCCc3ccccc3)c3ncn(C)c3n2)n1` [Compound 9.11, [2-(3,5-Dimethyl-pyrazol-1-yl)-9-methyl-9H-purin-6-yl]-phenethyl-amine], the “The SC100 (Stimulating Concentration required for increasing the baseline current by 100%)” value stood at 0.2 µM.
With `Cc1cc(C)n(-c2nc(Nc3ccc([N+](=O)[O-])cc3)c3ncn(C)c3n2)n1` [Compound 9.8, [2-(3,5-Dimethyl-pyrazol-1-yl)-9-methyl-9H-purin-6-yl]-(4-nitro-phenyl)-amine], the “The SC100 (Stimulating Concentration required for increasing the baseline current by 100%)” value was determined as 0.2 µM.
With `Cc1cc(CO)n(-c2nc(Nc3ccc(Cl)cc3)c3ncn(C)c3n2)n1` [Compound 13.1, {2-[6-(4-Chloro-phenylamino)-9-methyl-9H-purin-2-yl]-5-methyl-2H-pyrazol-3-yl}-methanol], the “The SC100 (Stimulating Concentration required for increasing the baseline current by 100%)” value came out at 0.2 µM.
On to `COCCn1cnc2c(Nc3ccccc3)nc(-n3nc(C)cc3C)nc21` [Compound 15.1, [2-(3,5-Dimethyl-pyrazol-1-yl)-9-(2-methoxy-ethyl)-9H-purin-6-yl-]phenyl-amine], for which the “The SC100 (Stimulating Concentration required for increasing the baseline current by 100%)” value was found to be 0.4 µM.
As to `CCc1cc(CC)n(-c2nc(Nc3ccc(Cl)cc3)c3ncn(C)c3n2)n1` [Compound 9.14, (4-Chloro-phenyl)-[2-(3,5-diethyl-pyrazol-1-yl)-9-methyl-9H-purin-6-yl]-amine], the “The SC100 (Stimulating Concentration required for increasing the baseline current by 100%)” value was found to be 0.6 µM.
For `Cc1cc(-c2ccco2)nn1-c1nc(Nc2ccc(Cl)cc2)c2ncn(C)c2n1` [Compound 9.18, (4-Chloro-phenyl)-[2-(3-furan-2-yl-5-methyl-pyrazol-1-yl)-9-methyl-9H-purin-6-yl]-amine], the “The SC100 (Stimulating Concentration required for increasing the baseline current by 100%)” value was found to be 1.0 µM.
For the molecule `Cc1cc(C)n(-c2nc(Nc3ccccc3)c3nc[nH]c3n2)n1` [Compound 14.1, [2-(3,5-Dimethyl-pyrazol-1-yl)-9H-purin-6-yl]-phenyl-amine], the “The SC100 (Stimulating Concentration required for increasing the baseline current by 100%)” value was 0.2 µM.
`Cc1nn(-c2nc(Nc3ccc(Cl)cc3)c3ncn(C)c3n2)c(C)c1Cl` [Compound 9.16, [2-(4-Chloro-3,5-dimethyl-pyrazol-1-yl)-9-methyl-9H-purin-6-yl]-(4-chloro-phenyl)-amine]: the “The SC100 (Stimulating Concentration required for increasing the baseline current by 100%)” value was found to be 0.02 µM.
